# Assay results reported in patent US5245077A, “L-buthionine-S-sulfoximine and methods of making” (Cornell Research Foundation Inc., priority 1992, dated 1993).
# Entries after “also recorded” stand apart in the source; their conditions may differ. Read-outs that look alike come from different tables or passages of the source.
# Assays:
# [1] = target: T1, gamma-glutamylcysteine synthetase (Rattus norvegicus, UniProt P19468); test: Inhibition of gamma-glutamylcysteine synthetase (coupled PK/LDH assay, NADH absorbance at 340 mμ); assay type: biochemical; conditions: for Ki / binding mode: versus glutamate; for Ki: Lineweaver-Burk plot
# T1 sequence (P19468 1-637): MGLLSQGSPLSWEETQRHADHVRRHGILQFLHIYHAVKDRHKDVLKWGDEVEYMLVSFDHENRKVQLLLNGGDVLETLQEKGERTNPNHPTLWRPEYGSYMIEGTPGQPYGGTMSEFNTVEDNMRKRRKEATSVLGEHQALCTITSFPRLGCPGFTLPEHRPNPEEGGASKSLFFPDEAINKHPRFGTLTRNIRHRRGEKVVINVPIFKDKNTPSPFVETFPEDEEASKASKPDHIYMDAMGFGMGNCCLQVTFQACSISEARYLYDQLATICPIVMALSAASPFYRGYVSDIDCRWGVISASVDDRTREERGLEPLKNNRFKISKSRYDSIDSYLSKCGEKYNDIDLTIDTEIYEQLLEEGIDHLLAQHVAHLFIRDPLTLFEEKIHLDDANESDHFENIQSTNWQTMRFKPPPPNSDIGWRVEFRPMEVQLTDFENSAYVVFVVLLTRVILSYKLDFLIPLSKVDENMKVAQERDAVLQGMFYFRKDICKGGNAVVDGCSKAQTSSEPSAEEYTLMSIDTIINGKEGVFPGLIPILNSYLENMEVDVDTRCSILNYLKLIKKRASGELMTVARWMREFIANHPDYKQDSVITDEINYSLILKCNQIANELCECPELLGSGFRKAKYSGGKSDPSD
# T1 sequence (P48508 1-274 partner): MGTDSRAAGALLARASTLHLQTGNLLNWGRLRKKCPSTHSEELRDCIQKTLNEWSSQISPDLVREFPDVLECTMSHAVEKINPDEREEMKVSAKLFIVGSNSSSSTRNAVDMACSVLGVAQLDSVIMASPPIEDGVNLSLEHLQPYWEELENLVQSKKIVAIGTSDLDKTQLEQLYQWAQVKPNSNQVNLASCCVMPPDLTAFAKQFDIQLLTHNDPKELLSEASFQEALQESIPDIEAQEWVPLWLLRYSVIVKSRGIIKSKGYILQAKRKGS
# Experimental: L-buthionine-S-sulfoximine, L-buthionine-R-sulfoximine and D-buthionine-SR-sulfoximine were assayed for ability to inhibit gamma-glutamylcysteine synthetase.
# The assay procedure used is similar to that described in Griffith, O. W., J. Biol. Chem. 257, 13704-13712 (1982).
# The assay is based on the following reactions wherein GS is used to denote gamma-glutamylcysteine synthetase, PK is used to denote pyruvate kinase, LDH is used to denote lactate dehydrogenase, NADH is used to denote reduced beta-nicotinamide adenine dinucleotide, NAD^+ is used to denote oxidized beta-nictoninamide adenine dinucleotide, ATP is used to denote adenosine triphosphate, ADP is used to denote adenosine diphosphate, and Pi is used to denote inorganic phosphate.
# The assay is based on the fact that the velocity of the reaction to produce gamma-glutamylaminobutyrate is reduced to the extent that GS is inhibited. […] Reactions (2) and (3) are a detection system for ADP wherein ADP, as it is produced, reacts with phosphoenolpyruvate to produce pyruate, which reacts with NADH to produce NAD^+. […] Thus, progress of the GS reaction results in a decrease in the absorbence of the solution at 340 mμ and, if GS is inhibited, the decrease in absorbence at 340 mμ occurs at a slower rate. Such studies are carried out at several concentrations of inhibitor.
# Each test for inhibition was carried out in a cuvette containing in a final volume of 1 ml the following: 150 mM Tris-HCl buffer (pH 8.2), 75 mM KCl, 10 mM ATP, 5 mM phosphoenolpyruvate, 25 mM MgCl2, 1 to 5 mM L-glutamate, 10 mM α-amino-L-butyrate, 0.3 mM NADH, 0.2 mM EDTA, 10 International Units of PK, 10 International Units of LDH and 0.03 International Units of GS. […] Four sets of runs were made with 1 mM glutamate; 4 sets of runs were made with 1.7 mM glutamate; 4 sets of runs was made with 2.5 mM glutamate and 4 sets of runs were made with 5 mM glutamate. At each glutamate concentration, one set of runs were made with no inhibitor. For studies with L-buthionine-R-sulfoximine the other 3 sets of runs contained 0.05, 0.1, 0r 0.2 mM inhibitor. For studies with D-buthionine-SR-sulfoximine, the other 3 sets of runs contained 2, 5 or 10 mM inhibitor.
# For each test run the temperature was kept at 37° C. and GS was added last to start the reaction. The reaction velocity was followed from the decrease in absorbence at 340 mμ (a decrease of 0.62 in optical density indicates 0.1 μmol of product was formed).
# A Lineweaver-Burk plot was then prepared.
# Complete inhibition was obtained in less than 5 min with either concentration tested.
# [2] = test system: tissue glutathione levels; test: Glutathione depletion in mice (tissue glutathione levels); assay type: in vivo; conditions: for glutathione level of kidney / glutathione level of liver / glutathione level of pancreas: 2 hours after injection; for glutathione level of kidney: L-SR and D-SR 0.4 mmole/kg, L-S and L-R 0.2 mmole/kg; for depletion of glutathione in liver (in words) / depletion of glutathione in pancreas (in words): L-R 0.2 mmole/kg, D-SR 0.4 mmole/kg; for glutathione level of liver / glutathione level of pancreas: SR 0.4 mmole/kg, S 0.2 mmole/kg
# Experimental: Tissue glutathione levels were determined as described in Griffith, O. W., Anal. Biochem. 106, 207-212, (1980).
# Thirty two mice were given physiological saline, 4 mice were given 0.4 mmole/kg of L-buthionine-SR-sulfoximine, 4 mice were given 0.2 mmole/kg of L-buthionine-S-sulfoximine, 4 mice were given 0.2 mmoles/kg of L-buthionine-R-sulfoximine and 4 mice were given 0.4 mmole/kg or D-buthionine-SR-sulfoximine. All injections were given intraperitoneally. Two hours after injection, the mice were killed, and the glutathione levels in the brain, liver, pancreas, and kidney were determined.
# Trypanosoma b. brucei = conditions: mice infected with Trypanosoma b. brucei; cited from earlier work
# [3] = target: T1, gamma-glutamylcysteine synthetase; conditions: cited from earlier work
# [4] = test system: Glutathione synthesis in tissues and cells; conditions: in vitro or in vivo; cited from earlier work
# cystine transport = conditions: cited from earlier work
# Tumors in mice = conditions: with ionizing radiation and various chemotherapeutic agents; cited from earlier work
# [5] = Transport of 35S-labelled isomers into tissues (tissue content); assay type: in vivo, mice; conditions: 2 mmole/kg i.p., 2 hours
# Experimental: The transport of L-buthionine-S-sulfoximine and L-buthionine-R-sulfoximine into tissues was examined using preparations of each isomer radiolabeled with ^35 S.
# L-[^35 S]-Buthionine-SR-sulfoximine was prepared from L-[^35 S]methionine as described previously (Griffith, O. W., J. Biol. Chem. 257, 13704-13712 (1982)). The preparation was separated into L-[^35 S]-buthionine-S-sulfoximine and L-[^35 S]-buthionine-R-sulfoximine by chromatography using Cu^++ D-proline buffer as described in Example III.
# Twelve mice were injected intraperitoneally with L-[^35 S]-buthionine-S-sulfoximine and 12 mice were injected intraperitoneally with L-buthionine-R-sulfoximine. For all mice the dose was 2 mmole/kg. After 2 hours the mice were sacrificed, and the radioactivity contained in the various tissues was determined by liquid scintillation counting. From that determination and from the known specific activity of the compounds injected, the tissue content of either L-buthionine-S-sulfoximine or L-buthionine-R-sulfoximine was calculated. The results in μmole/gm tissue were as follows (tissue, content of L-buthionine-S-sulfoximine, content of L-buthionine-R-sulfoximine): brain, 0.11, 0.17; lung, 0.53, 0.55; heart, 0.33, 0.49; liver, 0.11, 0.16; spleen 0.51, 0.59; small intestine, 0.34, 0.39; large intestine, 0.25, 0.20; testes, 0.45, 0.50; skeletal muscle, 0.18, 0.24.
# [6] = test system: L-glutamylcysteine uptake; conditions: kidney; cited from earlier work
smiles,measurement,setting,value
"N[C@@H](CCC(=O)O)C(=O)O [glutamate, L-glutamate]",Km,"[1]; read-out: Km for glutamate, without inhibitor, 37° C., pH 8.2",1700 ± 300 µM
"CCCCS(=N)(=O)CC[C@@H](N)C(=O)O (stereo partly drawn) [D-buthionine-SR-sulfoximine, reference compound]",glutathione level of kidney,"[2]; kidney, i.p.",70 % of control
same,depletion of glutathione in liver (in words),"[2]; i.p., 2 hours",did not cause significant depletion of glutathione
same,depletion of glutathione in pancreas (in words),"[2]; i.p., 2 hours",did not cause significant depletion of glutathione
same,inhibition of gamma-glutamylcysteine synthetase (in words),[1],weak and reversible inhibitors
same,reversibility of inhibition,[1],reversible inhibitor
same,Ki,"[1]; 37° C., pH 8.2",5.2 mM
same,binding mode,[1],competitive with glutamate
CCCCS(=N)(=O)CCC(N)C(=O)O (racemic) [DL-buthionine-SR-sulfoximine],survival of infected mice (in words),Trypanosoma b. brucei,extended survival and in some cases to be cured
C[S@](=N)(=O)CC[C@H](N)C(=O)O [L-methionine-S-sulfoximine],inhibition of gamma-glutamylcysteine synthetase (in words),[3],the only diastereomer of DL-methionine-SR-sulfoximine that inhibits gamma-glutamylcysteine synthetase
"CCCCS(=N)(=O)CC[C@H](N)C(=O)O (stereo partly drawn) [L-buthionine-SR-sulfoximine, L-(S-n-butyl)homocysteine-SR-sulfoximine]",glutathione level of kidney,"[2]; kidney, i.p.",27 % of control
same,glutathione level of liver,[2]; i.p.,52 % of control
same,glutathione level of pancreas,[2]; i.p.,about 42 % of control
same,glutathione synthesis in tissues and cells (in words),[4],Glutathione synthesis is decreased
same,effect on cystine transport (in words),cystine transport,deleterious effect on cystine transport
same,inhibition of gamma-glutamylcysteine synthetase (in words),[3],potent and specific inhibitor of gamma-glutamylcysteine synthetase
same,effect on tumors in mice (in words),Tumors in mice,become glutathione depleted and more susceptible to the cytotoxic effects of ionizing radiation and various chemotherapeutic agents
CCCC[S@@](=N)(=O)CC[C@H](N)C(=O)O [L-buthionine-R-sulfoximine],depletion of glutathione in brain (in words),"[2]; brain, i.p., 2 hours",no significant effect on glutathione levels
same,effect on glutathione level in kidney (in words),[2]; kidney,only a small effect on glutathione level in kidney
same,glutathione level of kidney,"[2]; kidney, i.p.",87 % of control
same,depletion of glutathione in liver (in words),"[2]; i.p., 2 hours",no significant effect on glutathione levels; also recorded: did not cause significant depletion of glutathione
same,depletion of glutathione in pancreas (in words),"[2]; i.p., 2 hours",no significant effect on glutathione levels; also recorded: did not cause significant depletion of glutathione
same,inhibition of gamma-glutamylcysteine synthetase (in words),[1],weak and reversible inhibitors
same,reversibility of inhibition,[1],reversible inhibitor
same,Ki,"[1]; 37° C., pH 8.2",0.11 mM
same,binding mode,[1],competitive with glutamate
same,"tissue content, brain",[5],0.17 μmole/gm tissue
same,uptake or retention by some tissues (in words),"[5]; e.g., heart and liver",more effectively than L-buthionine-S-sulfoximine
same,"tissue content, heart",[5],0.49 μmole/gm tissue
same,"tissue content, large intestine",[5],0.20 μmole/gm tissue
same,"tissue content, liver",[5],0.16 μmole/gm tissue
same,"tissue content, lung",[5],0.55 μmole/gm tissue
same,"tissue content, skeletal muscle",[5],0.24 μmole/gm tissue
same,"tissue content, small intestine",[5],0.39 μmole/gm tissue
same,"tissue content, spleen",[5],0.59 μmole/gm tissue
same,"tissue content, testes",[5],0.50 μmole/gm tissue
CCCCS(=O)(=O)CC[C@H](N)C(=O)O [L-buthionine sulfone],L-glutamylcysteine uptake from the tubule (in words),[6],inhibition of L-glutamylcysteine uptake from the tubule
CCCC[S@](=N)(=O)CC[C@H](N)C(=O)O [L-buthionine-S-sulfoximine],depletion of tissue glutathione levels in several tissues (in words),[2]; compared with L-buthionine-SR-sulfoximine at twice the dose,as effectively as L-buthionine-SR-sulfoximine given at twice the dose
same,glutathione level of kidney,"[2]; kidney, i.p.",27 % of control
same,glutathione level of liver,[2]; i.p.,41 % of control
same,glutathione level of pancreas,[2]; i.p.,about 42 % of control
same,inhibition of gamma-glutamylcysteine synthetase (in words),[1],strongly and irreversibly inhibits
same,reversibility of inhibition,[1],irreversible inhibition
same,time to complete inhibition,"[1]; 0.01 or 0.1 mM inhibitor, either concentration",less than 5 min
same,reversal of inhibition by dilution or gel permeation chromatography,[1]; buffers containing ATP and MgCl2,could not be reversed
same,"tissue content, brain",[5],0.11 μmole/gm tissue
same,"tissue content, heart",[5],0.33 μmole/gm tissue
same,"tissue content, large intestine",[5],0.25 μmole/gm tissue
same,"tissue content, liver",[5],0.11 μmole/gm tissue
same,"tissue content, lung",[5],0.53 μmole/gm tissue
same,"tissue content, skeletal muscle",[5],0.18 μmole/gm tissue
same,"tissue content, small intestine",[5],0.34 μmole/gm tissue
same,"tissue content, spleen",[5],0.51 μmole/gm tissue
same,"tissue content, testes",[5],0.45 μmole/gm tissue
